Where “and” joins values, the source holds several entries; their conditions need not be identical. Equal values may be shown once. Entries after “also recorded” stand apart in the source; their conditions may differ. Read-outs that look alike come from different tables or passages of the source.
Experiments:
[1] = target: rat α7-nicotinic acetylcholine receptor (Rattus norvegicus, UniProt Q05941); assay type: cell-based
[2] = target: rat α3β4-nicotinic acetylcholine receptor (Rattus norvegicus, UniProt P04757+P12392); assay type: cell-based; settings: read-out: IC50, inhibition of (S)-nicotine-induced whole-cell current
[3] = human, in vivo; cited from earlier work
[4] = target: α7-nicotinic acetylcholine receptor (Rattus norvegicus, UniProt Q05941); assay type: binding
[5] = target: α4β2-nicotinic acetylcholine receptor (Homo sapiens, UniProt P17787+P43681); experiment: Acetylcholine-evoked currents in α4β2-nicotinic acetylcholine receptor; assay type: cell-based
NMDA receptor = assay type: binding, rat

rat α3β4-nicotinic acetylcholine receptor, sequence (P04757 26-499): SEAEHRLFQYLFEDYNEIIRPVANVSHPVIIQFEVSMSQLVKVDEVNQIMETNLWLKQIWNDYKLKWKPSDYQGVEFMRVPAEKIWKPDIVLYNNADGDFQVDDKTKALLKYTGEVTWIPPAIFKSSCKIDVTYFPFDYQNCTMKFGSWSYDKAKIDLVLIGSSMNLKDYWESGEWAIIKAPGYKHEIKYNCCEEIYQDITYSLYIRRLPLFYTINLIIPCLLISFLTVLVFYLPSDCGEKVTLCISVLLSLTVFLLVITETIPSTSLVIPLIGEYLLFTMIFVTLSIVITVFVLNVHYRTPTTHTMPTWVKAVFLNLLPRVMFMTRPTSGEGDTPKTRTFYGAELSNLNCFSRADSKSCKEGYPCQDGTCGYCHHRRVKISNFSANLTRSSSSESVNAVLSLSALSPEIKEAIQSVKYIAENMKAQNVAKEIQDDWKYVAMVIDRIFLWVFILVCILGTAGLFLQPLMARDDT
rat α3β4-nicotinic acetylcholine receptor, sequence (P12392 21-495): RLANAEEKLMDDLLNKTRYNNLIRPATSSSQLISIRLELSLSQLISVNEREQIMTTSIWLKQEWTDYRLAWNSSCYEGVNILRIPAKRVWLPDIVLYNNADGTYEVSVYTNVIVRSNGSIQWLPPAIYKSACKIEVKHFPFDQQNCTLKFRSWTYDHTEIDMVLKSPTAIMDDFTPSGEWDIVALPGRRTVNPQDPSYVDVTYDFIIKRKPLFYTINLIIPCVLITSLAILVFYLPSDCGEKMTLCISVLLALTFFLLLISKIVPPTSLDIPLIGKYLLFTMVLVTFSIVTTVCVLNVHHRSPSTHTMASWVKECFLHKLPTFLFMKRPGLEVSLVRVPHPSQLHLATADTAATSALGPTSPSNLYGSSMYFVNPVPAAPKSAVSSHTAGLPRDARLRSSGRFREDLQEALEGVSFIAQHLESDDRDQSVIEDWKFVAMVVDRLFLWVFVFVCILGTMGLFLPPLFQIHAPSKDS
rat α7-nicotinic acetylcholine receptor, sequence (Q05941 23-502): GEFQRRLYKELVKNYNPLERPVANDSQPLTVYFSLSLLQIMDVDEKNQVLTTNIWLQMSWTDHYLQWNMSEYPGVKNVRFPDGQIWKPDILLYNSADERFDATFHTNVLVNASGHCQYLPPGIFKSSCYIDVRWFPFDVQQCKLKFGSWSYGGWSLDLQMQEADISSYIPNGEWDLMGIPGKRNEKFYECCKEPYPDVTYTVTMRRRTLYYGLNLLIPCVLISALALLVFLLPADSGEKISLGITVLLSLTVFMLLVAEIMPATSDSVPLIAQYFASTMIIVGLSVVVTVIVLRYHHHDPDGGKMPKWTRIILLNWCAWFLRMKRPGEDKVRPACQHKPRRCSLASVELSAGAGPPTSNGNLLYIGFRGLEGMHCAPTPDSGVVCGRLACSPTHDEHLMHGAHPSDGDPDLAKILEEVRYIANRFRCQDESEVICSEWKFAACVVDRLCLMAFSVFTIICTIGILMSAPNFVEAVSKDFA
α7-nicotinic acetylcholine receptor, sequence (Q05941 23-502): as above
α4β2-nicotinic acetylcholine receptor, sequence (P43681 29-627 limits assumed): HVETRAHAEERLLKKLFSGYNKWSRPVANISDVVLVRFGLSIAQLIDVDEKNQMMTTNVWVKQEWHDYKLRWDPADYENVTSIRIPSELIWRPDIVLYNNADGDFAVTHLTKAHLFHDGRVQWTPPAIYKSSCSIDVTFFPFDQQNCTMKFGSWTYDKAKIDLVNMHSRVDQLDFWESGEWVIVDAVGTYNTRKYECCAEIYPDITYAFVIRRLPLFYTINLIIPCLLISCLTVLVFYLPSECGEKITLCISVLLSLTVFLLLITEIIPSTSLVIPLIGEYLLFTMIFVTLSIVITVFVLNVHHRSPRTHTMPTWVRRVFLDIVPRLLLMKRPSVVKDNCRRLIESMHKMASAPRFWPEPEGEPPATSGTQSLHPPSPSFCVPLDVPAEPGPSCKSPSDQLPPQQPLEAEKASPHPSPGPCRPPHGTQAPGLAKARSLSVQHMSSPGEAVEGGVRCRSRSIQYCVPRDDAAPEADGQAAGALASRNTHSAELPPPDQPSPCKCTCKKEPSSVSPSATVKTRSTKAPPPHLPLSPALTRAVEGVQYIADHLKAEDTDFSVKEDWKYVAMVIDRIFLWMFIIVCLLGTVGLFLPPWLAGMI
α4β2-nicotinic acetylcholine receptor, sequence (P17787 26-502 limits assumed): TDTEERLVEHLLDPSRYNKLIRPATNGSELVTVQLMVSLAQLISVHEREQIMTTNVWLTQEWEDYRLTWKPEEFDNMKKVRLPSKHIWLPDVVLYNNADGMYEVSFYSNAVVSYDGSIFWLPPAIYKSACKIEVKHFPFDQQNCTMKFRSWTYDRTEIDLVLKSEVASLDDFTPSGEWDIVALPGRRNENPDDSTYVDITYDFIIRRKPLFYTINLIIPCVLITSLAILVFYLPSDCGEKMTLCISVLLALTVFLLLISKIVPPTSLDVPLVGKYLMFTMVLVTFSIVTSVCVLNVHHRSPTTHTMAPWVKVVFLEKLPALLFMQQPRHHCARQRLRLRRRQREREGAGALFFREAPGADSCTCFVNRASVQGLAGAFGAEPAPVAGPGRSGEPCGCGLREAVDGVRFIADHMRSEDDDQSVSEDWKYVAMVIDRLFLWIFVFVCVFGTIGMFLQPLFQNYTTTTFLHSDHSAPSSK

SMILES	IC50 [2] [µM]	Displacement of [3H]-epibatidine [4]	Displacement of [125I]-α-bungarotoxin [4]	Mean current evoked by 280 μM acetylcholine, normalized to acetylcholine alone [1]	Ki (NMDA receptor)	also measured
CNC1(c2ccccc2Cl)CCCCC1=O (racemic) [(R,S)-Ketamine, reference compound]	3.1					Effect on acetylcholine-induced current [1]: inactive; also recorded: no observable effect; Patients reporting a positive response [3]: 41%; Response rate [3]: 30%
NC1(c2ccccc2Cl)CCC=CC1=O (racemic) [(R,S)-dehydronorketamine]	> 200	did not competitively displace	did not competitively displace	0.407 and 0.205		Effect on acetylcholine-evoked currents [5]: no effect; Current activation (agonist effect) [1]: No measurable effect; Hill coefficient nH [1]: 0.66 ± 0.05; Inhibition of acetylcholine-induced current [1]: ~ 60%; Voltage dependence of the inhibitory effect [1]: voltage-independent; Inhibition of ACh-induced whole-cell current ([1]; 0.03 µM): 45%; IC50 ([1]; read-out: IC50, inhibition of acetylcholine-evoked current): 55 ± 6 nM
NC1(c2ccccc2Cl)CCCCC1=O (racemic) [(R,S)-norketamine]	9.1					Inhibition of acetylcholine-induced current ([1]; 100 nM compound, 280 μM acetylcholine): ~ 45%; Mean current evoked by 280 μM acetylcholine, normalized to acetylcholine alone ([1]; 100 nM compound, −80 mV, n = 4, fraction of current remaining): 0.548; Mean current evoked by 280 μM acetylcholine, normalized to acetylcholine alone ([1]; 1000 nM compound, −80 mV, n = 4, fraction of current remaining): 0.287
N[C@@]1(c2ccccc2Cl)CCC[C@@H](O)C1=O [(2R,6R)-hydroxynorketamine]	> 200			0.354 and 0.489	> 100 µM	
N[C@]1(c2ccccc2Cl)CCC[C@H](O)C1=O [(2S,6S)-hydroxynorketamine]	> 200			0.461 and 0.361	21 µM and 21.2 µM	
N[C@@]1(c2ccccc2Cl)CCC=CC1=O [(R)-Dedhydronorketamine, (R)-dehydronorketamine]		not displaced	did not displace		74.5 µM	
N[C@@]1(c2ccccc2Cl)CCCCC1=O [(R)-norKetamine, (R)-norketamine]					26.5 µM	
N[C@]1(c2ccccc2Cl)CCC=CC1=O [(S)-Dehydronorketamine, (S)-dehydronorketamine]		not displaced	did not displace		39 µM	
N[C@]1(c2ccccc2Cl)CCCCC1=O [(S)-norKetamine, (S)-norketamine]					2.25 ± 0.22 µM	

From article PMC3534778 (European journal of pharmacology, 2012)
